Source: patent publication US20260184707A1, “PHARMACEUTICAL COMPOUNDS FOR THE TREATMENT OF COMPLEMENT MEDIATED DISORDERS” (ALEXION PHARMACEUTICALS, INC., priority 2022, published 2026)

Molecular target: T1, Human complement C1s enzyme (Homo sapiens, UniProt P09871)
T1 construct: purified from human serum, Complement Technology, Inc; purchased Complement Technology, Inc; host or cells: human serum (plasma-derived native protein)
T1 sequence (P09871 438-688 limits assumed): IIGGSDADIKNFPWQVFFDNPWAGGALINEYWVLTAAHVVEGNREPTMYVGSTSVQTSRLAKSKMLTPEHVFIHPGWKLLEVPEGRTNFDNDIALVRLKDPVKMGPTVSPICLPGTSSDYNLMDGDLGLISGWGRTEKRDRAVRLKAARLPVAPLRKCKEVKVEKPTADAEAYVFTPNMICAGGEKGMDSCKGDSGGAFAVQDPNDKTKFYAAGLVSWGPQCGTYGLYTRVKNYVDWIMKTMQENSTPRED
T1 sequence (P09871 16-437 partner limits assumed): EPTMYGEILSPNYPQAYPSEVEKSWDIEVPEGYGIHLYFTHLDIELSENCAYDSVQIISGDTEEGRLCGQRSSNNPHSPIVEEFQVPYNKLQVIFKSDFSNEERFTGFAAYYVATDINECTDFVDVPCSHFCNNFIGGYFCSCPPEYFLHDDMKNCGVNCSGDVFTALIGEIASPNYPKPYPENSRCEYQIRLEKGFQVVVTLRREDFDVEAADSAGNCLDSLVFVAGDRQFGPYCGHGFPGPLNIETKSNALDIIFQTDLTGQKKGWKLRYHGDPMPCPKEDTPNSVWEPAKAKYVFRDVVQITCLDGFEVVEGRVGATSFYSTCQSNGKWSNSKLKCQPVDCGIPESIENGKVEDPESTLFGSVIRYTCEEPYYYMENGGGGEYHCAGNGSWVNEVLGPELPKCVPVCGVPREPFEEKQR
Experiment: Human C1s enzyme assay
Format: biochemical
Conditions: human complement C1s enzyme 1.16 nM, substrate Z-L-Lys-SBzl, A405; read-out: IC50 (Stars)
Summary of the method: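 Thioesterase activity followed colorimetrically (DTNB, A405, 30-s reads) using 100 μM Z-L-Lys-SBzl substrate. Enzyme, human serum-derived C1s at 1.16 nM final, was incubated with test compound for 5 min, room temperature, pH 7.5 Tris buffer with 1 M NaCl. Rate-versus-concentration data fitted by nonlinear regression for IC50.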

SMILES	IC50 [nM]
C[C@@H](Nc1cnc(N2CC3(CCC3)C2)n(CC(=O)NCc2cc3cnccc3[nH]2)c1=O)c1ccc2oc3ccccc3c2c1 [Compound 373, (R)-N-((1H-pyrrolo[3,2-c]pyridin-2-yl)methyl)-2-(5-((1-(dibenzo[b,d]furan-2-yl)ethyl)-amino)-6-oxo-2-(2-azaspiro [3.3]heptan-2-yl)pyrimidin-1(6H)-yl)acetamide]	> 1000
C[C@@H](Nc1cnc(N2CC3(C2)CC(F)(F)C3)n(CC(=O)NCc2cc3cnccc3[nH]2)c1=O)c1ccc2oc3ccccc3c2c1 [Compound 374, (R)-N-((1H-pyrrolo[3,2-c]pyridin-2-yl)methyl)-2-(5-((1-(dibenzo[b,d]furan-2-yl)ethyl)-amino)-2-(6,6-difluoro-2-aza-spiro[3.3]heptan-2-yl)-6-oxo-pyrimidin-1(6H)-yl)acetamide]	> 1000
Cc1ncc(N[C@H](C)c2ccc3oc4ccccc4c3c2)c(=O)n1CC(=O)NCc1cc2cnccc2[nH]1 [Compound 378, (R)-N-((1H-pyrrolo[3,2-c]pyridin-2-yl)methyl)-2-(5-((1-(dibenzo[b,d]furan-2-yl)ethyl)-amino)-2-methyl-6-oxopyrimi-din-1(6H)-yl)acetamide]	> 1000
C[C@@H](Nc1cnc(N2CCC(F)(F)CC2)n(CC(=O)NCc2cc3cnccc3[nH]2)c1=O)c1ccc2oc3ccccc3c2c1 [Compound 379, (R)-N-((1H-pyrrolo[3,2-c]pyridin-2-yl)methyl)-2-(5-((1-(dibenzo[b,d]furan-2-yl)ethyl)-amino)-2-(4,4-difluoropiperi-din-1-yl)-6-oxopyrimidin-1(6H)-yl)acetamide]	> 1000
CC1CCCN(c2ncc(N[C@H](C)c3ccc4oc5ccccc5c4c3)c(=O)n2CC(=O)NCc2cc3cnccc3[nH]2)C1 (stereo partly drawn) [Compound 381, N-((1H-pyrrolo[3,2-c]pyridin-2-yl)methyl)-2-(5-(((R)-1-(dibenzo[b,d]furan-2-yl)ethyl)-amino)-2-(3-methylpiperidin-1-yl)-6-oxopyrimidin-1(6H)-yl)acetamide]	> 1000
C[C@@H](Nc1cnc(N2CC3CCC2C3)n(CC(=O)NCc2cc3cnccc3[nH]2)c1=O)c1ccc2oc3ccccc3c2c1 (stereo partly drawn) [Compound 383, N-((1H-pyrrolo[3,2-c]pyridine-2-yl)methyl)-2-(2-(2-azabicyclo[2.2.1]heptan-2-yl)-5-(((R)-1-(dibenzo[b,d]furan-2-yl)ethyl)amino)-6-oxopyrimidin-1(6H)-yl)acetamide]	> 1000
C[C@@H](Nc1cnc(N2CCS(=O)(=O)CC2)n(CC(=O)NCc2cc3cnccc3[nH]2)c1=O)c1ccc2oc3ccccc3c2c1 [Compound 385, (R)-N-((1H-pyrrolo[3,2-c]pyridin-2-yl)methyl)-2-(5-((1-(dibenzo[b,d]furan-2-yl)ethyl)-amino)-2-(1,1-dioxidothio-morpholino)-6-oxopyrimidin-1(6H)-yl)acetamide]	> 1000
C[C@@H](Nc1cnc(N2CC(O)C2)n(CC(=O)NCc2cc3cnccc3[nH]2)c1=O)c1ccc2oc3ccccc3c2c1 [Compound 386, (R)-N-((1H-pyrrolo[3,2-c]pyridin-2-yl)methyl)-2-(5-((1-(dibenzo[b,d]furan-2-yl)ethyl)-amino)-2-(3-hydroxyazetidin-1-yl)-6-oxopyrimidin-1(6H)-yl)acetamide]	> 1000
C[C@@H](Nc1cnc(N2C[C@H]3C[C@@H](C2)C3)n(CC(=O)NCc2cc3cnccc3[nH]2)c1=O)c1ccc2oc3ccccc3c2c1 [Compound 387, N-((1H-pyrrolo[3,2-c]pyridin-2-yl)methyl)-2-(2-((1S,5S)-3-azabicyclo[3.1.1]heptan-3-yl)-5-(((R)-1-(dibenzo[b,d]furan-2-yl)ethyl)amino)-6-oxopyr-imidin-1(6H)-yl)acetamide]	100 to 1000

Further lines, results first:

IC50 [nM]	SMILES
< 100	C[C@@H](Nc1cnc(-c2ccc(C3(F)COC3)cc2)n(CC(=O)NCc2cc3cnccc3[nH]2)c1=O)c1ccc2oc3ccccc3c2c1 [Compound 372, (R)—N-((1H-pyrrolo[3,2-c]pyridine-2-yl)methyl)-2-(5-((1-(dibenzo[b,d]furan-2-yl)ethyl)amino)-2-(4-(3-fluorooxetan-3-yl)phenyl)-6-oxopyrimidin-1(6H)-yl)acetamide]
< 100	C[C@@H](Nc1cnc(N2CCNCC2)n(CC(=O)NCc2cc3cnccc3[nH]2)c1=O)c1ccc2oc3ccccc3c2c1 [Compound 376, (R)—N-((1H-pyrrolo[3,2-c]pyridine-2-yl)methyl)-2-(5-((1-(dibenzo[b,d]furan-2-yl)ethyl)amino)-6-oxo-2-(piperazin-1-yl)pyrimidin-1(6H)-yl)acetamide]
< 100	C[C@@H](Nc1cnc(-c2ccc(O[C@@H]3CO[C@H]4[C@@H]3OC[C@H]4O)cc2)n(CC(=O)NCc2cc3cnccc3[nH]2)c1=O)c1ccc2oc3ccccc3c2c1 [Compound 377, N-((1H-pyrrolo[3,2-c]pyridine-2-yl)methyl)-2-(5-(((R)-1-(dibenzo[b,d]furan-2-yl)ethyl)amino)-2-(4-(((3R,3aR,6R,6aR)-6-hydroxyhexahydrofuro[3,2-b]furan-3-yl)oxy)phenyl)-6-oxopyrimidin-1(6H)-yl)acetamide]
100 to 1000	C[C@@H](Nc1cnc(N2CCC(O)CC2)n(CC(=O)NCc2cc3cnccc3[nH]2)c1=O)c1ccc2oc3ccccc3c2c1 [Compound 380, (R)-N-((1H-pyrrolo[3,2-c]pyridin-2-yl)methyl)-2-(5-((1-(dibenzo[b,d]furan-2-yl)ethyl)-amino)-2-(4-hydroxypiperidin-1-yl)-6-oxopyrimidin-1(6H)-yl)acetamide]
< 100	C[C@@H](Nc1cnc(N2CCC3(CC2)OCCO3)n(CC(=O)NCc2cc3cnccc3[nH]2)c1=O)c1ccc2oc3ccccc3c2c1 [Compound 382, (R)-N-((1H-pyrrolo[3,2-c]pyridin-2-yl)methyl)-2-(5-((1-(dibenzo[b,d]furan-2-yl)ethyl)-amino)-6-oxo-2-(1,4-dioxa-8-azaspiro[4.5]decan-8-yl)pyr-imidin-1(6H)-yl)acetamide]
100 to 1000	C[C@@H](Nc1cnc(N2CCSCC2)n(CC(=O)NCc2cc3cnccc3[nH]2)c1=O)c1ccc2oc3ccccc3c2c1 [Compound 384, (R)-N-((1H-pyrrolo[3,2-c]pyridin-2-yl)methyl)-2-(5-((1-(dibenzo[b,d]furan-2-yl)ethyl)-amino)-6-oxo-2-thiomorpho-linopyrimidin-1(6H)-yl)acet-amide]
100 to 1000	C[C@@H](Nc1cnc(N2CCCCCC2)n(CC(=O)NCc2cc3cnccc3[nH]2)c1=O)c1ccc2oc3ccccc3c2c1 [Compound 388, (R)-N-((1H-pyrrolo[3,2-c]pyridin-2-yl)methyl)-2-(2-(azepan-1-yl)-5-((1-(dibenzo [b,d]furan-2-yl)ethyl)amino)-6-oxopyrimidin-1(6H)-yl)-acetamide]
< 100	C[C@@H](Nc1cnc(N2CCN(C)CC2)n(CC(=O)NCc2cc3cnccc3[nH]2)c1=O)c1ccc2oc3ccccc3c2c1 [Compound 389, (R)-N-((1H-pyrrolo[3,2-c]pyridin-2-yl)methyl)-2-(5-((1-(dibenzo[b,d]furan-2-yl)ethyl)-amino)-2-(4-methylpiperazin-1-yl)-6-oxopyrimidin-1(6H)-yl)acetamide]
< 100	C[C@@H](Nc1nnc(-c2ccccc2F)n(CC(=O)NCc2cc3cnccc3[nH]2)c1=O)c1ccc2oc3ccccc3c2c1 [Compound 390, (R)—N-((1H-pyrrolo[3,2-c]pyridine-2-yl)methyl)-2-(6-((1-(dibenzo[b,d]furan-2-yl)ethyl)amino)-3-(2-fluorophenyl)-5-oxo-1,2,4-triazin-4(5H)-yl)acetamide]
100 to 1000	Cc1ncc(-c2ncc(N[C@H](C)c3ccc4oc5ccccc5c4c3)c(=O)n2CC(=O)NCc2cc3cnccc3[nH]2)cn1 [Compound 391, (R)-N-((1H-pyrrolo[3,2-c]pyridin-2-yl)methyl)-2-(5-((1-(dibenzo[b,d]furan-2-yl)ethyl)-amino)-2′-methyl-6-oxo-[2,5′-bipyrimidin]-1(6H)-yl)acet-amide]
< 100	O=C(Cn1cncc(NC(=O)c2coc(-c3ccccc3)n2)c1=O)NCc1cc2cnccc2[nH]1 [Compound 392, N-(1-(2-(((1H-pyrrolo[3,2-c]pyridin-2-yl)methyl)amino)-2-oxoethyl)-6-oxo-1,6-dihydro-pyrimidin-5-yl)-2-phenyl-oxazole-4-carboxamide]
100 to 1000	O=C(Cn1cncc(NC(=O)c2csc(-c3ccccc3)n2)c1=O)NCc1cc2cnccc2[nH]1 [Compound 393, N-(1-(2-(((1H-pyrrolo[3,2-c]pyridin-2-yl)methyl)amino)-2-oxoethyl)-6-oxo-1,6-dihydro-pyrimidin-5-yl)-2-phenyl-thiazole-4-carboxamide]
< 100	O=C(Cn1c(-c2ccccc2F)ncc(N[C@H]2CCc3ccccc32)c1=O)NCc1cc2cnccc2[nH]1 [Compound 394, (S)—N-((1H-pyrrolo[3,2-c]pyridine-2-yl)methyl)-2-(5-((2,3-dihydro-1H-inden-1-yl)amino)-2-(2-fluorophenyl)-6-oxopyrimidin-1(6H)-yl)acetamide]
